Data as given in ChEMBL document CHEMBL1137428, “Synthesis and monoamine transporter binding properties of 2,3-cyclo analogues of 3beta-(4'-aminophenyl)-2beta-tropanemethanol” (J Med Chem, 2006).

Target: Sodium-dependent noradrenaline transporter (Homo sapiens, UniProt P23975)
Experiment: Displacement of [3H]nisoxetine from human NET

Sequence of Sodium-dependent noradrenaline transporter (P23975 whole entry): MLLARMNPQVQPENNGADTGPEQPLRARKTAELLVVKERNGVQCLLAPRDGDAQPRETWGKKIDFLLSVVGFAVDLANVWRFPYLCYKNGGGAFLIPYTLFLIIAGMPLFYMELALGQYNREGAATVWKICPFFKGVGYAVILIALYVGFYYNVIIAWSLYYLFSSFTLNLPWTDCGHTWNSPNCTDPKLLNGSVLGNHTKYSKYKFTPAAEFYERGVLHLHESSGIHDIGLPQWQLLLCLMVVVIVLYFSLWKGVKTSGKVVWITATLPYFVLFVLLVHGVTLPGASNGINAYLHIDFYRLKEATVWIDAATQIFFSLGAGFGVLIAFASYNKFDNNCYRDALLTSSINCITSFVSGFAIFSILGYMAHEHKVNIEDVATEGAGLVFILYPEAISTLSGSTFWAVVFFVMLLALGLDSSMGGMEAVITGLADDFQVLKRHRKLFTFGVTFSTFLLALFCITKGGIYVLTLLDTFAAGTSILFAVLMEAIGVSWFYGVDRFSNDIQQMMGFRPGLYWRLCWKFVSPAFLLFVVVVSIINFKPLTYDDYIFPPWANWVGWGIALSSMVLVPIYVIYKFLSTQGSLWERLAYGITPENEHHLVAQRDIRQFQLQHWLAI

SMILES	IC50	Ki
CN1C2CCC1C1COC(=O)CCCCCCCCC(=O)Nc3ccc(cc3)C1C2 (stereo not given)	2.8 µM	1.4 µM
CN1C2CCC1C1COC(=O)CCCCC(=O)Nc3ccc(cc3)C1C2 (stereo not given)	–	> 2 µM
CN1CCCCCCCCCC(=O)OCC2C(CC3CCC2N3C)c2ccc1cc2 (stereo not given)	2.13 µM	1.06 µM
CN1C2CCC1C1COC(=O)CCSCCC(=O)Nc3ccc(cc3)C1C2 (stereo not given)	0.99 µM	0.5 µM
CN1C2CCC1C1COC(=O)CCCCCCC(=O)Nc3ccc(cc3)C1C2 (stereo not given)	3.04 µM	1.52 µM
CN1C2CCC1C1COC(=O)CCCCCCCC(=O)Nc3ccc(cc3)C1C2 (stereo not given)	–	> 2 µM
CN1C(=O)CCCCCCCCC(=O)OCC2C(CC3CCC2N3C)c2ccc1cc2 (stereo not given)	–	> 2 µM
CN1C2CCC1C1COC(=O)Cc3ccc(cc3)CC(=O)Nc3ccc(cc3)C1C2 (stereo not given)	–	> 2 µM
CN1C2CCC1C1COC(=O)CCCCCCCCCCC(=O)Nc3ccc(cc3)C1C2 (stereo not given)	2.32 µM	1.16 µM
CN1C2CCC1C1COC(=O)CCC3(CCC(=O)Nc4ccc(cc4)C1C2)c1ccccc1-c1ccccc13 (stereo not given)	0.98 µM	0.49 µM
CN1C2CCC1C1COC(=O)CCCCCC(=O)Nc3ccc(cc3)C1C2 (stereo not given)	0.04 µM	0.02 µM
CN1C2CCC1C1COC(=O)CCC(=O)CCC(=O)Nc3ccc(cc3)C1C2 (stereo not given)	1.4 µM	0.71 µM
CN1CCCCCCCCCCCC(=O)OCC2C(CC3CCC2N3C)c2ccc1cc2 (stereo not given)	–	> 2 µM

Target: Sodium-dependent dopamine transporter (Homo sapiens, UniProt Q01959)
Experiment: Displacement of [3H]WIN-35428 from human DAT

Sequence of Sodium-dependent dopamine transporter (Q01959 whole entry): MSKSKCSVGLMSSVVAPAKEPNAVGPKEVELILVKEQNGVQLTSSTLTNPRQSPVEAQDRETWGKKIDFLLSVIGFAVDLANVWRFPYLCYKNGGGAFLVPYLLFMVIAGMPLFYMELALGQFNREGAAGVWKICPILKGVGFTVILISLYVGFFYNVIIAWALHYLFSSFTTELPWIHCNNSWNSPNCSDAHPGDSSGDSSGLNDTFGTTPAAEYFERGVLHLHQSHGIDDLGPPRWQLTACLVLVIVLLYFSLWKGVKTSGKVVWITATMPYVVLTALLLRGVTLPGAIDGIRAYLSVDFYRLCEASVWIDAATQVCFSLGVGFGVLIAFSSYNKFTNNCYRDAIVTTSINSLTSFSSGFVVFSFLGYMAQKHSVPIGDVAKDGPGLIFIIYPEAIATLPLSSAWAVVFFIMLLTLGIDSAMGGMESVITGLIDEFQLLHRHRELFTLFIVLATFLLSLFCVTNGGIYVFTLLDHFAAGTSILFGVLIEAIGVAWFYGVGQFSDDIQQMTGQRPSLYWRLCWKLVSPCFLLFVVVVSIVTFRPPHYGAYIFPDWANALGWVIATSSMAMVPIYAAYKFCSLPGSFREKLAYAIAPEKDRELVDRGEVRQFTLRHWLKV

SMILES	IC50
CN1C2CCC1C1COC(=O)CCCCCCCCC(=O)Nc3ccc(cc3)C1C2 (stereo not given)	0.13 µM
CN1C2CCC1C1COC(=O)CCCCC(=O)Nc3ccc(cc3)C1C2 (stereo not given)	0.89 µM
CN1CCCCCCCCCC(=O)OCC2C(CC3CCC2N3C)c2ccc1cc2 (stereo not given)	0.15 µM
CN1C2CCC1C1COC(=O)CCSCCC(=O)Nc3ccc(cc3)C1C2 (stereo not given)	0.17 µM
CN1C2CCC1C1COC(=O)CCCCCCC(=O)Nc3ccc(cc3)C1C2 (stereo not given)	0.07 µM
CN1C2CCC1C1COC(=O)CCCCCCCC(=O)Nc3ccc(cc3)C1C2 (stereo not given)	0.41 µM
CN1C(=O)CCCCCCCCC(=O)OCC2C(CC3CCC2N3C)c2ccc1cc2 (stereo not given)	1.92 µM
CN1C2CCC1C1COC(=O)Cc3ccc(cc3)CC(=O)Nc3ccc(cc3)C1C2 (stereo not given)	> 2 µM
CN1C2CCC1C1COC(=O)CCCCCCCCCCC(=O)Nc3ccc(cc3)C1C2 (stereo not given)	0.39 µM
CN1C2CCC1C1COC(=O)CCC3(CCC(=O)Nc4ccc(cc4)C1C2)c1ccccc1-c1ccccc13 (stereo not given)	0.29 µM
CN1C2CCC1C1COC(=O)CCCCCC(=O)Nc3ccc(cc3)C1C2 (stereo not given)	0.0038 µM
CN1C2CCC1C1COC(=O)CCC(=O)CCC(=O)Nc3ccc(cc3)C1C2 (stereo not given)	0.16 µM
CN1CCCCCCCCCCCC(=O)OCC2C(CC3CCC2N3C)c2ccc1cc2 (stereo not given)	0.49 µM

Target: Sodium-dependent serotonin transporter (Homo sapiens, UniProt P31645)
Experiment: Displacement of [3H]paroxetine from human 5HTT

Sequence of Sodium-dependent serotonin transporter (P31645 whole entry): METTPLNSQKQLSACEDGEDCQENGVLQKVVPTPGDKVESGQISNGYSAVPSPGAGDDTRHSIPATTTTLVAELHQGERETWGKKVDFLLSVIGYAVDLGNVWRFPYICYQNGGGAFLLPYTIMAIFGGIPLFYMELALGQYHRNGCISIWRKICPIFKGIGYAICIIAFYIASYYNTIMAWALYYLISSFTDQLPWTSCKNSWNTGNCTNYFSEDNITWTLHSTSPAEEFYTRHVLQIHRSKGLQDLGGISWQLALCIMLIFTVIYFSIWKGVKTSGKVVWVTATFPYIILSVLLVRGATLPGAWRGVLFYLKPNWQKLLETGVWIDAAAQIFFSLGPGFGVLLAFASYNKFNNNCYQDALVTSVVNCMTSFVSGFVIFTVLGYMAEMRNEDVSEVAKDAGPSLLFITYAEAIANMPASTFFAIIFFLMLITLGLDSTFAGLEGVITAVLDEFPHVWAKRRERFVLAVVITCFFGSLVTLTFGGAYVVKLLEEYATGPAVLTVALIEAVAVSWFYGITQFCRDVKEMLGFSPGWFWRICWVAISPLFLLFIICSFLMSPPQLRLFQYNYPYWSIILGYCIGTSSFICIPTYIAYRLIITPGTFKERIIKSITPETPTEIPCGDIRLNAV

SMILES	IC50	Ki
CN1C2CCC1C1COC(=O)CCCCCCCCC(=O)Nc3ccc(cc3)C1C2 (stereo not given)	0.0078 µM	0.0019 µM
CN1C2CCC1C1COC(=O)CCCCC(=O)Nc3ccc(cc3)C1C2 (stereo not given)	> 2 µM	–
CN1CCCCCCCCCC(=O)OCC2C(CC3CCC2N3C)c2ccc1cc2 (stereo not given)	0.38 µM	0.094 µM
CN1C2CCC1C1COC(=O)CCSCCC(=O)Nc3ccc(cc3)C1C2 (stereo not given)	6.73 µM	1.65 µM
CN1C2CCC1C1COC(=O)CCCCCCC(=O)Nc3ccc(cc3)C1C2 (stereo not given)	2.09 µM	0.513 µM
CN1C2CCC1C1COC(=O)CCCCCCCC(=O)Nc3ccc(cc3)C1C2 (stereo not given)	–	> 2 µM
CN1C(=O)CCCCCCCCC(=O)OCC2C(CC3CCC2N3C)c2ccc1cc2 (stereo not given)	–	> 2 µM
CN1C2CCC1C1COC(=O)Cc3ccc(cc3)CC(=O)Nc3ccc(cc3)C1C2 (stereo not given)	–	> 2 µM
CN1C2CCC1C1COC(=O)CCCCCCCCCCC(=O)Nc3ccc(cc3)C1C2 (stereo not given)	1.2 µM	0.29 µM
CN1C2CCC1C1COC(=O)CCC3(CCC(=O)Nc4ccc(cc4)C1C2)c1ccccc1-c1ccccc13 (stereo not given)	> 2 µM	–
CN1C2CCC1C1COC(=O)CCCCCC(=O)Nc3ccc(cc3)C1C2 (stereo not given)	0.2 µM	0.05 µM
CN1C2CCC1C1COC(=O)CCC(=O)CCC(=O)Nc3ccc(cc3)C1C2 (stereo not given)	5.01 µM	1.23 µM
CN1CCCCCCCCCCCC(=O)OCC2C(CC3CCC2N3C)c2ccc1cc2 (stereo not given)	0.45 µM	0.11 µM
